In publication PMC9860313 (2022):

Key:
[1] = system: aptamer-B (theophylline aptamer) (RNA, aptamer, 3'-terminal (A)10 spacer is DNA (positions 34-43)) GGCGAUACCAGCCGAAAGGCCCUUGGCAGCGUC; test: surface plasmon resonance; conditions: 150 mM NaCl, 5 mM MgCl2; 10 mM HEPES pH 7.4, 0.01-0.1% DMSO, 25°C
[2] = system: aptamer-F (theophylline aptamer) (RNA, aptamer) GGCGAUACCAGCCGAAAGGCCCUUGGCAGCGUC; test: fluorescence strand invasion assay; conditions: 10 mM NaCl, 5 mM MgCl2; 20 mM HEPES pH 7.5, 0.01% Tween-20; 37°C; inhibits invasion by BBQ-650 2'-F quencher strand (Q-invader); apparent
[3] = system: stabilized aptamer (RNA, aptamer) GGCGAUACCAGCCGAAAGGCCCUUGGCAGCGCC; test: X-ray crystallography; conditions: 30 mM NaCl, 5 mM MgCl2, 5 mM HEPES pH 7.5, 0.4 mM RNA, 1 mM ligand
[4] = system: mutant aptamer-B (U24C) (RNA, aptamer, 3'-terminal (A)10 spacer is DNA (positions 34-43)) GGCGAUACCAGCCGAAAGGCCCUCGGCAGCGUC; test: surface plasmon resonance; conditions: 150 mM NaCl, 5 mM MgCl2; 10 mM HEPES pH 7.4, 0.01-0.1% DMSO, 25°C; highest concentration 0.1-2.0 µM
[5] = system: pentaloop aptamer (RNA, aptamer) GGCGAUACCAGCGAAACACGCCCUUGGCAGCGUC; test: X-ray crystallography, soaked crystal; conditions: 30 mM KCl, 10 mM MgCl2 (RNA refolding); Fab-RNA crystals soaked in 1.1 mM TAL2, 1 h; ligand not precisely placed
[6] = crystals from cacodylate pH 6.5, PEG 8K, MPD

SMILES | Kd [1] [nM] | IC50 [2] [nM] | binding [3, 6] | binding [4] | binding ([3]; 0.2 M Ca(OAc)2 in reservoir, crystals from PEG 3350, 20°C) | binding [5]
Cn1c(=O)c2[nH]cnc2n(C)c1=O | 670 | 1990 | yes | no |  | 
Cn1c(=O)cnc2c(N)nc(=O)[nH]c21 | 2 | 460 |  |  | yes | 

More lines, now with the values ahead:

Kd [1] [nM] | IC50 [2] [nM] | binding [3, 6] | binding [4] | binding ([3]; 0.2 M Ca(OAc)2 in reservoir, crystals from PEG 3350, 20°C) | binding [5] | SMILES
280 | 1920 | yes |  |  |  | COc1cc2ncnc(N3CCN(CCCCO)CC3)c2cc1OC
23 | 1160 | yes |  |  |  | COc1cc2c(O)ncnc2cc1OCC1CCN(C)CC1
9.1 | 700 | yes |  |  | yes | COc1cc2c(O)ncnc2cc1OCCCN1CCCCC1
